This is an account of results in US20060166984A1, “Amino substituted benzo(hetero)cyclic derivatives” (priority 2003, published 2006).

As usually defined, the melting point is the temperature of the solid-liquid transition. What is called mortality is the share of the test organisms that died.

Like-named read-outs stand apart in the source and are kept apart here.

In data set [1] the test system is Cotton Aphid (aphis gossypii). As to the kind of experiment: Cotton Aphid foliar dip test on cotton cotyledons. The data set is classed as in vivo. As to conditions: 120 h, counts after 5 days, read-out: mortality in comparison with untreated controls. An excerpt: Cotton Aphid (aphis gossypii)
The active compounds were formulated in 50:50 acetone:water and 100 ppm Kinetic® surfactant (a nonionic wetting agent which is a blend of polyalkyleneoxide modified polydimethylsiloxane and polyoxypropylene-polyoxyethylene copolymers, available from Helena Chemical Company, Memphis, Tenn. 38119, U.S.A.).
Cotton plants at the cotyledon stage (one plant per pot) were infested by placing a heavily infested leaf from the main colony on top of each cotyledon. The aphids were allowed to transfer to the host plant overnight, and the leaf used to transfer the aphids was removed. The cotyledons were dipped in the test solution and allowed to dry. After 5 days, mortality counts were made.

For data set [2], the system named is Green Peach Aphid (myzus persicae). The data set can be described thus: Green Peach Aphid foliar dip test on pepper plants. The data set is classed as in vivo. Particulars: 120 h, read-out: mortality in comparison with untreated controls. The protocol: Green Peach Aphid (myzus persicae)
(§1) The active compounds were formulated in 50:50 acetone:water and 100 ppm Kinetic® surfactant.
Pepper plants in the 2nd leaf-pair stage (variety ‘California Wonder’) were infested with approximately 40 laboratory-reared aphids by placing infested leaf sections on top of the test plants. The leaf sections were removed after 24 hours. The leaves of the intact plants were dipped into gradient solutions of the test compound and allowed to dry. Test plants were maintained under fluorescent light (24 hour photoperiod) at about 25° C. and […] relative humidity. Aphid mortality on the treated plants, relative to mortality on check plants, was determined after 5 days.

For data set [3], the system named is Twospotted Spider Mite (Tetranychus urticae). As to the kind of experiment: Twospotted Spider Mite dip test on lima bean plants. The data set is classed as in vivo. As to conditions: 120 h, read-out: mortality compared to untreated controls. The protocol:
Twospotted Spider Mite (Tetranychus urticae)
Lima bean plants in the 1st leaf-pair stage (variety ‘Henderson’) were infested with approximately 100 laboratory-reared mites per leaf by placing infested leaf sections on top of the test plants. The leaf sections were removed after 24 hours. The foliage of the intact plants was dipped into gradient solutions of the test compounds. Mite mortality was determined after 5 days.

In the next data set the test system is Bean Aphid (Aphis fabae). The data set can be described thus: Bean Aphid dip test on nasturtium plants. The data set is classed as in vivo. As to conditions: 72 h, after 3 days, read-out: mortality compared to untreated controls. The protocol: Nasturtium plants in the 1st leaf-pair stage (variety ‘Mixed Jewle’ were infested with approximately 25 laboratory-reared aphids by placing infested cut plants on top of the test plants. The cut plants were removed after 24 hours. The foliage and stem of the test plants were dipped into gradient solutions of the test compound. Aphid mortality was determined after 3 days.

For data set [4], the system named is Silverleaf whitefly (bemisia argentifolii). As to the kind of experiment: Silverleaf whitefly test on dipped cotton cotyledons. Format: in vivo. As to conditions: 72 h, whitefly adults on cotton, 3 days after treatment, read-out: mortality compared to untreated controls. The protocol:
Silverleaf whitefly (bemisia argentifolii)
as §1
Selected cotton plants were grown to the cotyledon state (one plant per pot). The cotyledons were dipped into the test solution to provide complete coverage of the foliage and placed in a well-vented area to dry. Each pot with treated seedling was placed in a plastic cup and 10 to 12 whitefly adults (approximately 3-5 day old) were introduced. The cups were covered with a re-usable screened lid (150 micron mesh polyester screen PeCap from Tetko Inc). Test plants were maintained in the holding room at about 25° C. and 20-40% relative humidity for 3 days avoiding direct exposure to the fluorescent light (24 hour photoperiod) to prevent trapping of heat inside the cup.
Mortality was assessed 3 days after treatment of the plants.

Setting [5] is: 300 ppm, green peach aphid on pepper, after 5 days.
Where [6] appears, read: 300 ppm, spider mite on lima bean, after 5 days.

In turn, `CN1CCN(C2=Cc3ccccc3C2)CC1` yielded a melting point of 158 to 160 °C.
`CCN1CCN(C2=Cc3ccccc3C2)CC1` showed a melting point of 124 to 126 °C.
Take `CCN1CCN(C2=CCCc3ccccc32)CC1`: the melting point was in the range of 68 to 70 °C.
On to `CN1CCN([C@@H]2C[C@@H](c3ccc(F)cc3)c3ccc(Cl)cc32)CC1` (relative stereo) [Compound 61, Trans-1-[3-(4-fluorophenyl)-6-chloro-2,3-dihydro-1H-inden-1-yl]4-methylpiperazine], for which the mortality at 300 ppm in data set [1] and in data set [2] (setting [5]) was over 85% each time.
As to `CN1CCN(c2cccc3ccccc23)CC1` [Compound 5, 1-Methyl-4-(1-naphthyl)-piperazine], the mortality at 300 ppm in data set [2] was over 85%.
For `CN1CCN(c2nccc3ccccc23)CC1` [Compound 12, 1-(1-Isoquinolinyl)-4-methylpiperazine], the mortality at 300 ppm in data set [3] is over 70%.
With `CN1CCN(C2CCc3ccccc3C2)CC1` (stereo not shown) [Compound 14, 1-(1,2,3,4-Tetrahydro-2-naphthalenyl)-4-methylpiperazine], in data set [3] (setting [6]), the mortality at 300 ppm was over 70%.
Consider `CN1CCN(C2CCSc3ccc(Cl)cc32)CC1` (stereo not shown) [Compound 16, 1-(6-Chloro-3,4-dihydro-2H-thiochromen-4-yl)-4-methylpiperazine], for which the figures for the mortality at 300 ppm (in the data set on Bean Aphid (Aphis fabae); in data set [1]; in data set [2] (setting [5])) were over 70%, over 85% and over 85%, respectively.
`CN1CCN(C2CCCc3ccc(F)cc32)CC1` (stereo not shown) [Compound 20, 1-(7-Fluoro-1,2,3,4-tetrahydro-1-naphthalenyl)-4-methylpiperazine]: the mortality at 300 ppm is over 70% in data set [3] (setting [6]), over 95% in data set [4], over 85% in data set [1] and over 85% in data set [2] (setting [5]).
Consider `CN1CCN(C2=CCCc3ccc(F)cc32)CC1` [Compound 21, 1-(7-Fluoro-3,4-dihydro-1-naphthalenyl)-4-methylpiperazine], for which the mortality at 300 ppm in data set [3] (setting [6]) is over 70%.
